Reference: patent US7166590B2, “Amino acid derivatives” (Ono Pharmaceutical Co., Ltd., priority 1997, dated 2007)
Where a name gives a salt, the structure may show the parent alone.

Target: T1, N-type calcium channel (Homo sapiens, UniProt Q00975)
T1 construct: endogenous in cells
Assay: Determination of inhibitory activity on N-type calcium channel (Fura-2 calcium influx, KCl depolarization, with nifedipine)
Format: cell-based
Conditions: compound at final concentration of 3 μM, depolarized by 80 mM potassium chloride, Fura-2 fluorescence, read-out: Inhibitory activity on Ca influx (%)
Description: Determination of Inhibitory Activity on N-Type Calcium Channel:
Cell line was differentiated according to the method described in FEBS Letters, 235, 178-182, 1988. The cell was loaded with fluorescent reagent, Fura-2•AM (at the final concentration of 10 μM), at 37° C. for 30 minutes and suspended in Krebs-buffer containing HEPES (25 mM) to obtain the cell suspension. The obtained cell suspension was incubated in the presence or absence of the compounds of the present invention with nifedipine for 5 minutes. The cell was depolarized by adding potassium chloride solution (at the final concentration of 80 mM) thereto and then a fluorescence intensity at the emission wavelength of 500 nm excited by the UV of 340 nm and 380 nm alternately was measured using the intracellular calcium analyzer (Nippon Bunko Co., CAF-110). The inhibitory activity of the compound of the present invention (at the final concentration of 3 μM) on calcium influx into the cell was calculated from the difference in changing the fluorescence intensity at peak (ΔR) according to the following equation. [formula]

T1 sequence (Q00975 whole entry): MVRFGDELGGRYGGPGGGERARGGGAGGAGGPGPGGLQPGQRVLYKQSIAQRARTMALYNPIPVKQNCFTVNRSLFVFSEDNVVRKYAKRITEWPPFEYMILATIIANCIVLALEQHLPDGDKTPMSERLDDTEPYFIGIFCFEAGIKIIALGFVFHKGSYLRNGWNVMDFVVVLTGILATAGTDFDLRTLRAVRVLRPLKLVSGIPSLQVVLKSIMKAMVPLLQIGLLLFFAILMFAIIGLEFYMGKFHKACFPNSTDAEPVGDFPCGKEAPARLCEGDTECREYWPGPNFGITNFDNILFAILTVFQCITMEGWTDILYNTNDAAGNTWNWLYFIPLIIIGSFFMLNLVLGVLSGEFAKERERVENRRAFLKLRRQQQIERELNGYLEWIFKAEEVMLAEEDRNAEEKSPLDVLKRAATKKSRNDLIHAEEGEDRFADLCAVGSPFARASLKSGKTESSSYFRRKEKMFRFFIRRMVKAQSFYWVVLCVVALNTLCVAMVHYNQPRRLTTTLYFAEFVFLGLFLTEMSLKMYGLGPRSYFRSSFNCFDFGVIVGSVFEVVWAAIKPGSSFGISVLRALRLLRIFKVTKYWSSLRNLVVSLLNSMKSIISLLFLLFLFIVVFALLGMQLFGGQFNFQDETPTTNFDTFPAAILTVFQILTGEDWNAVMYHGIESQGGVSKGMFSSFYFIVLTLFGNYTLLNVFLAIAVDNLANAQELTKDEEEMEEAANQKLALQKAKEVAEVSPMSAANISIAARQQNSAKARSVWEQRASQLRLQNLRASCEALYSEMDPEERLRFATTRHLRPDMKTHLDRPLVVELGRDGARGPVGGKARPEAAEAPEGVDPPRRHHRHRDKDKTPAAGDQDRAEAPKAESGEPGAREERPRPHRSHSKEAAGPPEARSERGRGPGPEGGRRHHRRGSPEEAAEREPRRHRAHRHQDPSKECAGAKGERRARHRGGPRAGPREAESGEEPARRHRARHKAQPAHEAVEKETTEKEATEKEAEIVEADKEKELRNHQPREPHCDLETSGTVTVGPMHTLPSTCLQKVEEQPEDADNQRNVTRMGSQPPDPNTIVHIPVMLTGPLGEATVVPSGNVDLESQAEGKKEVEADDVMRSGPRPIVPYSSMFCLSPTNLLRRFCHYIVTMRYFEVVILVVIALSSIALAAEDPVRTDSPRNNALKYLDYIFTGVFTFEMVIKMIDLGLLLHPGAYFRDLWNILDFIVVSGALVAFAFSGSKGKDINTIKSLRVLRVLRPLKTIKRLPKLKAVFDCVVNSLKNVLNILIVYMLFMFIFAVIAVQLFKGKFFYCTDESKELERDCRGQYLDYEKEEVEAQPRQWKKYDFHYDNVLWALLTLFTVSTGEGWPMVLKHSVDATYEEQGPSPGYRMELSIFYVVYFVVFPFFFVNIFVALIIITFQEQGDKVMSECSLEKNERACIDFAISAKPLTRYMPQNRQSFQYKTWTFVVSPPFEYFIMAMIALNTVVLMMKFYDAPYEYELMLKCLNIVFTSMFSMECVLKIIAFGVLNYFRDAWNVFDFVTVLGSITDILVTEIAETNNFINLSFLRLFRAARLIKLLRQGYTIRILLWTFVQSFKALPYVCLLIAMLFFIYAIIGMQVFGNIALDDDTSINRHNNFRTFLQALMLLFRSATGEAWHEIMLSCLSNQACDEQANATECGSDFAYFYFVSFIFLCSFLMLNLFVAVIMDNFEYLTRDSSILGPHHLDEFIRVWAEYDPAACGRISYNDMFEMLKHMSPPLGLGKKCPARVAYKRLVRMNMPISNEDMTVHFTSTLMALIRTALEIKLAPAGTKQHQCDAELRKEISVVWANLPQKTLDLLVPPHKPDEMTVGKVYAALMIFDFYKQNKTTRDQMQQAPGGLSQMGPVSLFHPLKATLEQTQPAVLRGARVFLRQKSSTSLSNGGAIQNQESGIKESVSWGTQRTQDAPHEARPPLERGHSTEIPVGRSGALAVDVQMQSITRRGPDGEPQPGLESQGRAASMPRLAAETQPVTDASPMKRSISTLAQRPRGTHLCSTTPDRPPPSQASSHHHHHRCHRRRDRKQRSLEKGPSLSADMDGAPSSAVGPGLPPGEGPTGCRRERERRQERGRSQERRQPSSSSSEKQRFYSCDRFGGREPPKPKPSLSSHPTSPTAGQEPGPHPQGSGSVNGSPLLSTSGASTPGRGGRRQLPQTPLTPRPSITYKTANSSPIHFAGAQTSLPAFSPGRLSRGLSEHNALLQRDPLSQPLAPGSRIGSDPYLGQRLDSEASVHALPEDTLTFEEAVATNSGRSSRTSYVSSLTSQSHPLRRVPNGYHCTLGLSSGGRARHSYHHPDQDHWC

Structure (SMILES)	inhibition at 3 µM [%]
COc1ccc(CNC(=O)[C@H](COCC2CCCCC2)NC(=O)C2CCCCC2)cc1 [Example 6(27), (2S)-N-(4-methoxybenzyl)-3-cyclohexylmethoxy-2-cyclohexylcarbonylamino-propanamide]	72
COc1ccc(CNC(=O)[C@H](CSCC2CCCCC2)NC(=O)OC(C)(C)C)cc1 [Example 2(80), (2R)-N-(4-methoxybenzyl)-3-cyclohexylmethylthio-2-t-butoxycarbonylamino-propanamide]	87
CC(C)(C)OC(=O)N[C@@H](COCC1CCCCC1)C(=O)NCc1ccc([N+](=O)[O-])cc1 [Example 2(86), (2S)-N-(4-nitrobenzyl)-3-cyclohexylmethoxy-2-t-butoxycarbonylamino-propanamide]	83
COc1ccc(CNC(=O)[C@H](COCC2CCCCC2)NC(=O)OC(C)(C)C)cc1 [compound 2]	75
CC(C)(C)OC(=O)N[C@@H](CCC(=O)OCc1ccc([N+](=O)[O-])cc1)C(=O)OC1CCCC1 [Example 2(29), (2S)-4-(4-nitrobenzyloxycarbonyl)-2-t-butoxycarbonylaminobutanoic acid.cyclopentyl ester]	75
O=C(N[C@@H](CSCC1CCCCC1)C(=O)NCc1ccc(Oc2ccccc2)cc1)[C@@H]1CSCN1 [Example 9(13), (2R)-N-(4-phenoxybenzyl)-3-cyclohexylmethylthio-2-((4R)-thiazolidin-4-ylcarbonylamino)propanamide.hydrochloride]	88
COc1ccc(CNC(=O)[C@H](CSCC2CCCCC2)NC(=O)[C@@H]2CSCN2C(=O)OC(C)(C)C)cc1 [Example 6(44), (2R)-N-(4-methoxybenzyl)-3-cyclohexylmethylthio-2-((4R)-3-t-butoxycarbonyl-thiazolidin-4-ylcarbonylamino)propanamide]	86
COc1ccc(CNC(=O)[C@H](COCC2CCCCC2)NS(=O)(=O)c2ccccc2)cc1 [Example 6(22), (2S)-N-(4-methoxybenzyl)-3-cyclohexylmethoxy-2-phenylsulfonylamino-propanamide]	79
CC(C)(C)OC(=O)N1CSC[C@H]1C(=O)N[C@@H](CSCC1CCCCC1)C(=O)NCc1ccc(Oc2ccccc2)cc1 [Example 6(68), (2R)-N-(4-penoxybenzyl)-3-cyclohexylmethylthio-2-((4R)-3-t-butoxycarbonyl-thiazolidin-4-ylcarbonylamino)propanamide]	73
